Source: ChEMBL document CHEMBL2346657, “Synthesis of novel 2-amino-4-(5'-substituted 2'-phenyl-1H-indol-3'-yl)-6-aryl-4H-pyran-3-carbonitrile derivatives as antimicrobial and antioxidant agents” (2013)
The source made the active and inactive calls. The rule behind the calls is not given here.

Tests used:
Format in all cases: functional
Aspergillus flavus [1] = test: Antimicrobial activity against Aspergillus flavus MTCC 1973 at 1000 ug/ml after 72 hrs by cup plate method; conditions: MTCC 1973, 72 h, read-out: IZ
Staphylococcus aureus [2] = test: Antimicrobial activity against Staphylococcus aureus ATCC 29513 at 750 ug/ml after 24 hrs by cup plate method; conditions: ATCC 29513, 24 h, read-out: IZ
Aspergillus terreus [3] = test: Antimicrobial activity against Aspergillus terreus MTCC 1782 at 1000 ug/ml after 72 hrs by cup plate method; conditions: MTCC 1782, 72 h, read-out: IZ
Staphylococcus aureus [4] = test: Antimicrobial activity against Staphylococcus aureus ATCC 29513 at 1000 ug/ml after 24 hrs by cup plate method; conditions: ATCC 29513, 24 h, read-out: IZ
Aspergillus flavus [5] = test: Antimicrobial activity against Aspergillus flavus MTCC 1973 at 500 ug/ml after 72 hrs by cup plate method; conditions: MTCC 1973, 72 h, read-out: IZ
Klebsiella pneumoniae [6] = test: Antimicrobial activity against Klebsiella pneumoniae NCTC 13368 at 750 ug/ml after 24 hrs by cup plate method; conditions: NCTC 13368, 24 h, read-out: IZ
Aspergillus oryzae [7] = test: Antimicrobial activity against Aspergillus oryzae MTCC 3567 at 750 ug/ml after 72 hrs by cup plate method; conditions: MTCC 3567, 72 h, read-out: IZ
Pseudomonas aeruginosa [8] = test: Antimicrobial activity against Pseudomonas aeruginosa MTCC 1688 at 1000 ug/ml after 24 hrs by cup plate method; conditions: MTCC 1688, 24 h, read-out: IZ
Aspergillus oryzae [9] = test: Antimicrobial activity against Aspergillus oryzae MTCC 3567 at 1000 ug/ml after 72 hrs by cup plate method; conditions: MTCC 3567, 72 h, read-out: IZ
Aspergillus flavus [10] = test: Antimicrobial activity against Aspergillus flavus MTCC 1973 at 750 ug/ml after 72 hrs by cup plate method; conditions: MTCC 1973, 72 h, read-out: IZ
Escherichia coli [11] = test: Antimicrobial activity against Escherichia coli MTCC 723 at 500 ug/ml after 24 hrs by cup plate method; conditions: MTCC 723, 24 h, read-out: IZ
Aspergillus niger [12] = test: Antimicrobial activity against Aspergillus niger MTCC 281 at 750 ug/ml after 72 hrs by cup plate method; conditions: MTCC 281, 72 h, read-out: IZ
Pseudomonas aeruginosa [13] = test: Antimicrobial activity against Pseudomonas aeruginosa MTCC 1688 at 750 ug/ml after 24 hrs by cup plate method; conditions: MTCC 1688, 24 h, read-out: IZ
[14] = Antioxidant activity assessed as metal chelating activity by measuring inhibition of ferrozine-Fe2+ complex formation at 25 to 100 ug/ml
Aspergillus niger [15] = test: Antimicrobial activity against Aspergillus niger MTCC 281 at 1000 ug/ml after 72 hrs by cup plate method; conditions: MTCC 281, 72 h, read-out: IZ
Escherichia coli [16] = test: Antimicrobial activity against Escherichia coli MTCC 723 at 750 ug/ml after 24 hrs by cup plate method; conditions: MTCC 723, 24 h, read-out: IZ
Aspergillus terreus [17] = test: Antimicrobial activity against Aspergillus terreus MTCC 1782 at 500 ug/ml after 72 hrs by cup plate method; conditions: MTCC 1782, 72 h, read-out: IZ
Staphylococcus aureus [18] = test: Antimicrobial activity against Staphylococcus aureus ATCC 29513 at 500 ug/ml after 24 hrs by cup plate method; conditions: ATCC 29513, 24 h, read-out: IZ
Pseudomonas aeruginosa [19] = test: Antimicrobial activity against Pseudomonas aeruginosa MTCC 1688 at 500 ug/ml after 24 hrs by cup plate method; conditions: MTCC 1688, 24 h, read-out: IZ
Aspergillus oryzae [20] = test: Antimicrobial activity against Aspergillus oryzae MTCC 3567 at 500 ug/ml after 72 hrs by cup plate method; conditions: MTCC 3567, 72 h, read-out: IZ
Aspergillus terreus [21] = test: Antimicrobial activity against Aspergillus terreus MTCC 1782 at 750 ug/ml after 72 hrs by cup plate method; conditions: MTCC 1782, 72 h, read-out: IZ
Klebsiella pneumoniae [22] = test: Antimicrobial activity against Klebsiella pneumoniae NCTC 13368 at 1000 ug/ml after 24 hrs by cup plate method; conditions: NCTC 13368, 24 h, read-out: IZ
Aspergillus niger [23] = test: Antimicrobial activity against Aspergillus niger MTCC 281 at 500 ug/ml after 72 hrs by cup plate method; conditions: MTCC 281, 72 h, read-out: IZ
Klebsiella pneumoniae [24] = test: Antimicrobial activity against Klebsiella pneumoniae NCTC 13368 at 500 ug/ml after 24 hrs by cup plate method; conditions: NCTC 13368, 24 h, read-out: IZ
Escherichia coli [25] = test: Antimicrobial activity against Escherichia coli MTCC 723 at 1000 ug/ml after 24 hrs by cup plate method; conditions: MTCC 723, 24 h, read-out: IZ

Row | Structure (SMILES) | zone of inhibition at 1000 µg/mL (Aspergillus flavus [1]) | zone of inhibition at 750 µg/mL (Staphylococcus aureus [2]) | zone of inhibition at 1000 µg/mL (Aspergillus terreus [3]) | zone of inhibition at 1000 µg/mL (Staphylococcus aureus [4]) | zone of inhibition at 500 µg/mL (Aspergillus flavus [5]) | zone of inhibition at 750 µg/mL (Klebsiella pneumoniae [6]) | zone of inhibition at 750 µg/mL (Aspergillus oryzae [7]) | zone of inhibition at 1000 µg/mL (Pseudomonas aeruginosa [8]) | zone of inhibition at 1000 µg/mL (Aspergillus oryzae [9]) | zone of inhibition at 750 µg/mL (Aspergillus flavus [10]) | zone of inhibition at 500 µg/mL (Escherichia coli [11]) | zone of inhibition at 750 µg/mL (Aspergillus niger [12]) | zone of inhibition at 750 µg/mL (Pseudomonas aeruginosa [13]) | Activity [14] | zone of inhibition at 1000 µg/mL (Aspergillus niger [15]) | zone of inhibition at 750 µg/mL (Escherichia coli [16]) | zone of inhibition at 500 µg/mL (Aspergillus terreus [17]) | zone of inhibition at 500 µg/mL (Staphylococcus aureus [18]) | zone of inhibition at 500 µg/mL (Pseudomonas aeruginosa [19]) | zone of inhibition at 500 µg/mL (Aspergillus oryzae [20]) | also measured
1 | Cc1ccc(C2=CC(c3c(-c4ccccc4)[nH]c4ccccc34)c3c(nc[nH]c3=O)O2)cc1 (stereo not given) | 5 mm | 2 mm | 8 mm | 2 mm | 3 mm | 6 mm | 3 mm | 3 mm | 3 mm | 3 mm | 3 mm | 8 mm | 3 mm | Active | 11 mm | 3 mm | 8 mm | 2 mm | 4 mm | 3 mm | zone of inhibition at 750 µg/mL (Aspergillus terreus [21]): 8 mm; zone of inhibition at 1000 µg/mL (Klebsiella pneumoniae [22]): 6 mm; zone of inhibition at 500 µg/mL (Aspergillus niger [23]): 8 mm; zone of inhibition at 500 µg/mL (Klebsiella pneumoniae [24]): 6 mm; zone of inhibition at 1000 µg/mL (Escherichia coli [25]): 3 mm
2 | Cc1ccc(C2=CC(c3c(-c4ccccc4)[nH]c4ccc(C)cc34)c3c(nc[nH]c3=O)O2)cc1 (stereo not given) | 9 mm | 2 mm | 9 mm | 2 mm | 10 mm | 8 mm | 3 mm | 8 mm | 3 mm | 9 mm | 2 mm | 3 mm | 8 mm | Active | 3 mm | 2 mm | 9 mm | 2 mm | 8 mm | 3 mm | zone of inhibition at 750 µg/mL (Aspergillus terreus [21]): 9 mm; zone of inhibition at 1000 µg/mL (Klebsiella pneumoniae [22]): 8 mm; zone of inhibition at 500 µg/mL (Aspergillus niger [23]): 3 mm; zone of inhibition at 500 µg/mL (Klebsiella pneumoniae [24]): 8 mm; zone of inhibition at 1000 µg/mL (Escherichia coli [25]): 2 mm
3 | O=c1[nH]cnc2c1C(c1c(-c3ccccc3)[nH]c3ccccc13)C=C(c1ccc(Cl)cc1)O2 (stereo not given) | 8 mm | 5 mm | 5 mm | 5 mm | 10 mm | 9 mm | 10 mm | 10 mm | 10 mm | 9 mm | 9 mm | 8 mm | 10 mm | Active | 8 mm | 9 mm | 6 mm | 5 mm | 10 mm | 10 mm | zone of inhibition at 750 µg/mL (Aspergillus terreus [21]): 6 mm; zone of inhibition at 1000 µg/mL (Klebsiella pneumoniae [22]): 10 mm; zone of inhibition at 500 µg/mL (Aspergillus niger [23]): 8 mm; zone of inhibition at 500 µg/mL (Klebsiella pneumoniae [24]): 9 mm; zone of inhibition at 1000 µg/mL (Escherichia coli [25]): 9 mm
4 | O=c1[nH]cnc2c1C(c1c(-c3ccccc3)[nH]c3ccc(Cl)cc13)C=C(c1ccccc1)O2 (stereo not given) | 13 mm | 12 mm | 9 mm | 12 mm | 12 mm | 9 mm | 13 mm | 3 mm | 13 mm | 12 mm | 10 mm | 7 mm | 3 mm | Active | 7 mm | 10 mm | 10 mm | 12 mm | 3 mm | 12 mm | zone of inhibition at 750 µg/mL (Aspergillus terreus [21]): 10 mm; zone of inhibition at 1000 µg/mL (Klebsiella pneumoniae [22]): 9 mm; zone of inhibition at 500 µg/mL (Aspergillus niger [23]): 7 mm; zone of inhibition at 500 µg/mL (Klebsiella pneumoniae [24]): 9 mm; zone of inhibition at 1000 µg/mL (Escherichia coli [25]): 11 mm
5 | Cc1ccc2[nH]c(-c3ccccc3)c(C3C=C(c4ccc(Cl)cc4)OC(N)=C3C#N)c2c1 (stereo not given) | 8 mm | 5 mm | 13 mm | 2 mm | 10 mm | 9 mm | 10 mm | 2 mm | 10 mm | 10 mm | 10 mm | 10 mm | 5 mm | Active | 10 mm | 10 mm | 12 mm | 6 mm | 6 mm | 10 mm | zone of inhibition at 750 µg/mL (Aspergillus terreus [21]): 13 mm; zone of inhibition at 1000 µg/mL (Klebsiella pneumoniae [22]): 8 mm; zone of inhibition at 500 µg/mL (Aspergillus niger [23]): 10 mm; zone of inhibition at 500 µg/mL (Klebsiella pneumoniae [24]): 9 mm; zone of inhibition at 1000 µg/mL (Escherichia coli [25]): 10 mm
6 | Cc1ccc(C2=CC(c3c(-c4ccccc4)[nH]c4ccccc34)c3c(N)nc(=S)[nH]c3O2)cc1 (stereo not given) | 3 mm | 4 mm | 4 mm | 4 mm | 3 mm | 9 mm | 9 mm | 3 mm | 9 mm | 3 mm | 9 mm | 5 mm | 5 mm | Active | 2 mm | 8 mm | 6 mm | 6 mm | 5 mm | 10 mm | zone of inhibition at 750 µg/mL (Aspergillus terreus [21]): 4 mm; zone of inhibition at 1000 µg/mL (Klebsiella pneumoniae [22]): 3 mm; zone of inhibition at 500 µg/mL (Aspergillus niger [23]): 6 mm; zone of inhibition at 500 µg/mL (Klebsiella pneumoniae [24]): 9 mm; zone of inhibition at 1000 µg/mL (Escherichia coli [25]): 3 mm
